Entries after “also recorded” stand apart in the source; their conditions may differ. Square brackets hold non-standard residues; d marks the D form. Ends that are not written are not given here. Peptide text beside a SMILES is read from it. Nle = CCCC[C@H](N)C(=O)O
Tests used:
[1] = target: T1, ENaC (Homo sapiens, UniProt P37088+P51168+P51170); assay: Airway surface liquid (ASL) height in human bronchial epithelial cultures by XZ-confocal microscopy; format: cell-based; details: FIGS. 3A, 3B; for potency compared to S18 (dose response): 4
T1 construct: Peptides were added mucosally to HBECs at 30 μM and ASL height measured 3 h later by XZ-confocal microscopy; endogenous in cells; host or cells: primary human bronchial epithelial cultures (HBECs) at air-liquid interface
T1 sequence (P37088 1-669): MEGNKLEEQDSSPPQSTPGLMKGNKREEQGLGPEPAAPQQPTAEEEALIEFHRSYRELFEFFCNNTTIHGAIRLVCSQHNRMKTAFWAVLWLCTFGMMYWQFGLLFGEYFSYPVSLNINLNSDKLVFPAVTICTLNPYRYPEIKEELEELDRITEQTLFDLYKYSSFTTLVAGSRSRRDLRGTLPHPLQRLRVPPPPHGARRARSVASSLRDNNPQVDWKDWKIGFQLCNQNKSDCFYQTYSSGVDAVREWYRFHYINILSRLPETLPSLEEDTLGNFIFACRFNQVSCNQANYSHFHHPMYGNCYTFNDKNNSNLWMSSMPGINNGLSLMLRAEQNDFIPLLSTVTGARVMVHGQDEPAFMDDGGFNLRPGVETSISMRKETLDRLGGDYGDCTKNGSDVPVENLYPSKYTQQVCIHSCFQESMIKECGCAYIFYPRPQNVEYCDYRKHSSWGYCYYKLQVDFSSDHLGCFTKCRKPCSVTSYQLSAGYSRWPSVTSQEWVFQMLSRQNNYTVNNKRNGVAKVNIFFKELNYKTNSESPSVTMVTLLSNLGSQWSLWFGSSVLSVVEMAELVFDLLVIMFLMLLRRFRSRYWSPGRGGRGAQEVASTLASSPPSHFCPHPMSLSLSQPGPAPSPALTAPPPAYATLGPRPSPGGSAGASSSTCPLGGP
T1 sequence (P51168 1-640): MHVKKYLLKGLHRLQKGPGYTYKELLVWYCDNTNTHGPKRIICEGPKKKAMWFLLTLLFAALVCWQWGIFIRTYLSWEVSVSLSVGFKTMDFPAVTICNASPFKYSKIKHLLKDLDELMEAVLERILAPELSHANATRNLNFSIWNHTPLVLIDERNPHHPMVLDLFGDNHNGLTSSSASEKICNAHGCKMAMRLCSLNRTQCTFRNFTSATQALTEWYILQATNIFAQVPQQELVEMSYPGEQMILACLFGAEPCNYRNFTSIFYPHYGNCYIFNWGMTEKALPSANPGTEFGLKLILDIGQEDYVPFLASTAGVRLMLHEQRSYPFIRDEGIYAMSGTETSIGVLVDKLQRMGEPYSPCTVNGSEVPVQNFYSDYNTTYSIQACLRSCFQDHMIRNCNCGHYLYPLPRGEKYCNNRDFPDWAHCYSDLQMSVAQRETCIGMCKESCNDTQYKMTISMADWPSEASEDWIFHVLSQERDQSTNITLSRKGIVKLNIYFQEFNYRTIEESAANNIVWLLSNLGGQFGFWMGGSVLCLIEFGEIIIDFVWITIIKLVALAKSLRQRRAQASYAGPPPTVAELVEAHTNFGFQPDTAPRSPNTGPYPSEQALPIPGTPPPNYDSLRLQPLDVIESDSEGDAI
T1 sequence (P51170 1-649): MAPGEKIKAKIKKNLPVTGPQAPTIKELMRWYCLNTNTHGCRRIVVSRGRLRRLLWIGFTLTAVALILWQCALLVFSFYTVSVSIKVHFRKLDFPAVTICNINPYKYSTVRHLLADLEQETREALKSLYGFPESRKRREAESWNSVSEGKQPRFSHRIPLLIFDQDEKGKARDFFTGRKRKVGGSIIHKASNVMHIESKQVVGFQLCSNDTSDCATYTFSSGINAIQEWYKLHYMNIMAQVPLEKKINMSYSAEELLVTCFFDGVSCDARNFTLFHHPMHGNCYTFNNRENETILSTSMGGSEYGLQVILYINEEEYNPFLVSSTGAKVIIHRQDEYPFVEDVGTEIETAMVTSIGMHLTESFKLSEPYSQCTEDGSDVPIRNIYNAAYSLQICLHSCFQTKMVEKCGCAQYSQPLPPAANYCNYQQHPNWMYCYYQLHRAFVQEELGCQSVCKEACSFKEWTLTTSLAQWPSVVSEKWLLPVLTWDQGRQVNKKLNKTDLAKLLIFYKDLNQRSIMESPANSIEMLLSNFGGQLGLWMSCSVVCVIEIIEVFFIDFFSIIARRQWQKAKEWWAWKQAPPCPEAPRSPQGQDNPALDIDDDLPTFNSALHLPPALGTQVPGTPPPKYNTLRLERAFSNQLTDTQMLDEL

[2] = target: T2, alpha-ENaC (Homo sapiens, UniProt P37088+P51168+P51170); assay: Internalization of alpha-ENaC in HEK293T cells, GFP-tagged alpha-ENaC co-expressed with beta and gamma ENaC; format: cell-based; details: beta-ENaC co-expressed, FIGS. 5A-5U
T2 construct: expressed in transfected cells; host or cells: HEK293T
T2 sequence (P37088 1-669): T1 sequence (P37088 1-669)
T2 sequence (P51168 1-640): T1 sequence (P51168 1-640)
T2 sequence (P51170 1-649): T1 sequence (P51170 1-649)
Text: HEK293T cells were transfected with gfp-αENaC where gfp was fused at the N-terminus of ENaC and unlabeled βENaC and γENaC using lipofectamine in 384 well plates as per the manufacturer's instructions and as published previously (see, e.g., Hobbs et al. Am J Physiol Lung Cell Mol Physiol. 2013 December; 305(12):L990-L1001. doi: 10.1152/ajplung.00103.2013. Epub 2013 October; Garland et al. Proc Natl Acad Sci USA. 2013 Oct. 1; 110(40):15973-8. doi: 10.1073/pnas.1311999110. Epub 2013 Sep. 16.; Tan et al. J Physiol. 2014 Dec. 1; 592(Pt 23):5251-68). Twenty-four hours later, peptide or vehicle control were added at t=0 and fluorescence was read using a Tecan M1000 plate reader 3 h later. Fluorescence was read at 488 nm (excitation)/510 nm (emission).

[3] = target: T1, ENaC; assay: Airway surface liquid (ASL) height in human bronchial epithelial cultures by XZ-confocal microscopy; format: cell-based; details: peptides added mucosally to HBECs at 30 μM, ASL height measured 3 h later; FIGS. 2A-2B
Text: Cells were harvested by enzymatic digestion from human bronchial tissue as previously described under a protocol approved by the UNC School of Medicine IRB (Tarran et al., J. Gen. Physiol. 127:591 (2006)). Human excess donor lungs and excised recipient lungs were obtained at the time of lung transplantation from portions of main stem or […] bronchi and cells were harvested by enzymatic digestion. All preparations were maintained at an air-liquid interface in a modified bronchial epithelial medium and used 2-5 weeks after seeding on 12 mm T-Clear inserts (Corning Costar) coated with human placental type VI collagen (Sigma). Phosphate buffered saline (PBS) was used for washing human bronchial epithelial culture mucosal surfaces.
To label airway surface liquid, Ringer containing rhodamine-dextran (2 mg/ml; Invitrogen) was added to human bronchial epithelial culture mucosal surfaces. […] 10 points per culture were scanned and an average airway surface liquid height determined. […]
To confirm our alanine-scan data, we made a peptide of subsequence A (LPVPLDQT (SEQ ID NO:113); FIG. 1). […] Peptides were added mucosally to HBECs at 30 μM and ASL height measured 3 h later by XZ-confocal microscopy. […]

[4] = system: proteases; format: in vitro ADME
[5] = system: βENaC-Tg mice; format: in vivo; details: βENaC-Tg C57BL:C3H mice, fourteen-day treatment; FIGS. 7C, 7D, 7F
Text: Like CF patients, βENaC-Tg mice are disease free at birth, but soon develop obstructive lung disease (Zhou, Z., et al. Am J Respir Crit Care Med 178, 1245-1256 (2008)). C57BL:FVB and C57BL:C3H mixed strains have 90% and 50% mortality, respectively, and the reproducibility of the disease on these backgrounds is sufficiently high that reliable data are produced with n of about 8-10 animals/group. Furthermore, the βENaC-Tg mouse responds to therapeutic interventions in a fashion similar to CF/COPD in humans, and the development of lung disease can be prevented following inhibition of lung disease at birth (Livraghi, A., et al. J Immunol 182, 4357-4367 (2009)). S18-derived peptides or vehicle were dosed one to three times a day by intranasal instillation (1 μl/g body weight) for 14 days in parallel cohorts of mice. Mice were weighed daily and, if a diuretic effect was found, the volume excreted was replaced by sub-cutaneous injections of sterile saline. At the end of the treatment, mice were sacrificed for phenotypic analysis.

Compound: CCCC[C@H](NC(=O)[C@@H]1CCCN1C(=O)[C@H](CC(C)C)NC(=O)[C@@H](C)NC(=O)[C@@H](C)N)C(=O)N1CCC[C@H]1C(=O)N[C@@H](CC(C)C)C(=O)N[C@@H](CC(=O)O)C(=O)N[C@@H](CCC(N)=O)C(=O)N[C@H](C(=O)N[C@H](C)C(=O)N[C@H](C)C(N)=O)[C@@H](C)O [SEQ ID NO:5, aaLPNlePLDQTaa] (H-[dA][dA]LP[Nle]PLDQT[dA][dA]-NH2; N-terminus assumed)
- potency compared to S18 (dose response) [1]: log-fold increase in potency; also recorded: significant increase in potency; also recorded: increased potency

Compound: N=C(N)NC(=O)c1nc(Cl)c(N)nc1N [amiloride]
- reduction of alpha-ENaC / functional receptor on the cell surface [2]: does not reduce the amount of functional receptor on the surface of cells

Compound: DQTLPLNVNP (not fully specified) [SEQ ID NO:114, NH3-…-NH2, overlapping control peptide of S18]
- activity on ASL height / inhibition of ENaC compared with S18 [3]: inactive

Compound: H-LPVPLDQT-NH2 [SEQ ID NO:113, LPVPLDQT]
- activity on ASL height / inhibition of ENaC compared with S18 [3]: retained similar activity to S18; also recorded: required for inhibition of ENaC and preservation of ASL height
- susceptibility to proteolytic degradation [4]: more susceptible to proteolytic degradation

Compound: SEQ ID NO:127: NH3-LPIPLDQT-NH2 (H-LPIPLDQT-NH2)
- percent survival [5]: increased percent survival

Compound: aaLPVPLDQSaa ([dA][dA]LPVPLDQS[dA][dA]-NH2; N-terminus assumed; SMILES CC(C)C[C@H](NC(=O)[C@@H]1CCCN1C(=O)[C@@H](NC(=O)[C@@H]1CCCN1C(=O)[C@H](CC(C)C)NC(=O)[C@@H](C)NC(=O)[C@@H](C)N)C(C)C)C(=O)N[C@@H](CC(=O)O)C(=O)N[C@@H](CCC(N)=O)C(=O)N[C@@H](CO)C(=O)N[C@H](C)C(=O)N[C@H](C)C(N)=O) [SEQ ID NO:9]
- potency compared to S18 (dose response) [1]: diminished

Compound: aaLPVPLDQTLPLNVNPaa ([dA][dA]LPVPLDQTLPLNVNP[dA][dA]-NH2; N-terminus assumed; SMILES CC(C)C[C@H](NC(=O)[C@@H]1CCCN1C(=O)[C@H](CC(C)C)NC(=O)[C@@H](NC(=O)[C@H](CCC(N)=O)NC(=O)[C@H](CC(=O)O)NC(=O)[C@H](CC(C)C)NC(=O)[C@@H]1CCCN1C(=O)[C@@H](NC(=O)[C@@H]1CCCN1C(=O)[C@H](CC(C)C)NC(=O)[C@@H](C)NC(=O)[C@@H](C)N)C(C)C)[C@@H](C)O)C(=O)N[C@@H](CC(N)=O)C(=O)N[C@H](C(=O)N[C@@H](CC(N)=O)C(=O)N1CCC[C@H]1C(=O)N[C@H](C)C(=O)N[C@H](C)C(N)=O)C(C)C) [SEQ ID NO:2, a = D-alanine]
- efficacy compared to S18 (dose response) [1]: equal
- potency compared to S18 (dose response) [1]: equal

Compound: aaLPVPLDQTaa ([dA][dA]LPVPLDQT[dA][dA]-NH2; N-terminus assumed; SMILES CC(C)C[C@H](NC(=O)[C@@H]1CCCN1C(=O)[C@@H](NC(=O)[C@@H]1CCCN1C(=O)[C@H](CC(C)C)NC(=O)[C@@H](C)NC(=O)[C@@H](C)N)C(C)C)C(=O)N[C@@H](CC(=O)O)C(=O)N[C@@H](CCC(N)=O)C(=O)N[C@H](C(=O)N[C@H](C)C(=O)N[C@H](C)C(N)=O)[C@@H](C)O) [SEQ ID NO:3, a = D-alanine]
- efficacy compared to S18 (dose response) [1]: identical dose responses; also recorded: equal
- potency compared to S18 (dose response) [1]: identical dose responses; also recorded: equal

Compound: aaLPVPNleDQTaa [SEQ ID NO:6]
- efficacy compared to S18 (dose response) [1]: diminished

— patent publication US20200031866A1, “PEPTIDE INHIBITORS OF SODIUM CHANNELS” (SPYRYX BIOSCIENCES, INC., priority 2016, published 2020)
